The source of these data is PMC6020091 (Chemistry Central Journal, 2018).

Each structure is given as a SMILES string.

The target in assay [1] is T1, AChE (acetylcholinesterase) (Electrophorus electricus, UniProt O42275). Nature of the assay: colorimetric hydroxamic acid/FeCl3 assay of remaining ACh (Bonting and Featherstone), non-linear regression. The class given is biochemical.
Assay [2] deals with T1, AChE (acetylcholinesterase). Nature of the assay: colorimetric hydroxamic acid/FeCl3 assay of remaining ACh (Bonting and Featherstone), enzyme kinetics with Lineweaver-Burk plot. The class given is biochemical.

The Ki is a measure of affinity in units of concentration, obtained from inhibition or displacement. Read a low Ki as tighter binding.

T1 sequence (O42275 24-633 limits assumed): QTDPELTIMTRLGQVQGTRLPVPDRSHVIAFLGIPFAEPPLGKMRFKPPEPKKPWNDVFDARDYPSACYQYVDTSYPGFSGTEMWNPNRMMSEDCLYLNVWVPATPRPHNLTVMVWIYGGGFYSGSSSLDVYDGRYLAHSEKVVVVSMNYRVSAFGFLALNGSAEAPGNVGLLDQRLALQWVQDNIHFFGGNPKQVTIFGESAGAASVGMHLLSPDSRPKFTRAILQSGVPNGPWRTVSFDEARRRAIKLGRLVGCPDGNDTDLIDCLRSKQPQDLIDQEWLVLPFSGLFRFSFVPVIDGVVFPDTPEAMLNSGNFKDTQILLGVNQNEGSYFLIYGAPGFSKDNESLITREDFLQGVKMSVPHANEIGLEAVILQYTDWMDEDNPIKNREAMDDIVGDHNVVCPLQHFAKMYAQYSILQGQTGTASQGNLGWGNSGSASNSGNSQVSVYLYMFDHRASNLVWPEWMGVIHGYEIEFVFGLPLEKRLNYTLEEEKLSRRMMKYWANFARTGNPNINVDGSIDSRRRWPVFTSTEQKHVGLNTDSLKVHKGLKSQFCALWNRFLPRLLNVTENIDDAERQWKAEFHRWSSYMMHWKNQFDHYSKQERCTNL

Turning to `CN(C)C(=O)Oc1cccc([N+](C)(C)C)c1` [neostigmine], the Ki in assay [1] lay in the range of 93 to 157 µM.
In turn, `COc1ccc(CCN2C(=O)c3ccccc3C2=O)cc1OC` [compound 1] showed an inhibition constant Ki in assay [2] of 330 to 930 µM.
